According to the NIST ThermoML archive (doi:10.1021/je101035p):
± gives the expanded uncertainty stated by the source.

Assays:
[1] = refractive index (Na D-line) (dimensionless); settings: 101.33 kPa, Liquid, Standard Abbe refractometry
[2] = Liquid; for Normal boiling temperature: Distillation

Row | refractive index ([1]; 293.2 K) | Normal boiling temperature [2] | refractive index ([1]; 294 K) | mass density ([2]; 293.2 K, 101.33 kPa, Vibrating tube method) | SMILES
1 | 1.36115 ± 0.0007 | 78.29 ± 1.1 °C |  |  | CCO [ethanol]
2 |  | 220.00 ± 1.2 °C | 1.45445 ± 0.0012 | 895.06 ± 4.4 kg/m3 | C=CC(C)(CCC=C(C)C)OC(C)=O (stereo not given) [linalool acetate]
